For 26 compounds, IC50 results are on record in patent publication EP2739618B1, “QUINAZOLINE COMPOUNDS AS SERINE/THREONINE KINASE INHIBITORS” (Array Biopharma, Inc., priority 2011, dated 2013).

T1 sequence (P28482 8-360): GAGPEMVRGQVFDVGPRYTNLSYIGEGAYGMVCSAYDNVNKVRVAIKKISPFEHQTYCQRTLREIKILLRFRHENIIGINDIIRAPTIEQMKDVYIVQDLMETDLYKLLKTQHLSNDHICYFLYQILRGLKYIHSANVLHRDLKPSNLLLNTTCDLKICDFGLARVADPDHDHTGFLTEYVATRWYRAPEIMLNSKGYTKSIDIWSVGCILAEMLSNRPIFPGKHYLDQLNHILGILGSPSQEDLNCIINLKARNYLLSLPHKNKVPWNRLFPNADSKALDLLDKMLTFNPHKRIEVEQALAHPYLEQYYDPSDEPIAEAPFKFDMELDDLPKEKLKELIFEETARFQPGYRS

The test concerns the target T1, human ERK-2 (Mitogen Activated Kinase 1) (Homo sapiens, UniProt P28482).
T1 construct: N-terminal 6-His fusion protein in E. coli and corresponding to aa 8-360; 6-His (N); made in house; host or cells: E. coli
Description: ERK-2 Enzymatic Assay. The format is biochemical. The conditions noted are these: TABLE I; 5nM ERK-2 enzyme, 25µM ATP, S/T17 peptide substrate; single assay or mean of multiple assays. The method, then: Compounds were tested in an enzymatic assay using human ERK-2 (Mitogen Activated Kinase 1), recombinantly expressed as an N-terminal 6-His fusion protein in E. coli and corresponding to aa 8-360. The substrate used was the fluorescent Omnia peptide S/T17 (Invitrogen of Carlsbad, CA; Cat. KNZ1171C). Test compounds were diluted in DMSO in 3-fold serial dilutions at 100x final concentrations. […] The assay was run at ambient temperature in a white 384-well polypropylene plate (Nunc, Inc of Naperville, IL; Cat. 267462) collecting data every 50 seconds for approximately 30 minutes on an Envision plate reader (PerkinElmer, Inc. of Waltham, MA); Excitation 340 nm/Emission 495 nm. The data collected from each well was fit to a straight line and the resulting rates were used to calculate percent of control. Percent of control was plotted against compound concentration and IC50 values were determined using a four-parameter fit. Representative data is in TABLE I and TABLE II. The reported IC50 may be from a single assay or the mean of multiple assays.
In turn, “2-(tetrahydro-pyran-4-ylamino)-quinazoline-7-carboxylic acid [(R)-(4-cyano-3-fluoro-phenyl)-(1-methyl-1H-pyrazol-4-yl)-methyl]-amide [Compound I-45]” returned an IC50 of 22 nM.

Consider `O=C(N[C@H](c1ccc(C(F)(F)F)c(F)c1)[C@@H]1CCCN1)c1ccc2cnc(NC3CCOCC3)nc2c1` (stereo in doubt) [Compound I-7, 2-(tetrahydropyran-4-ylamino)-quinazoline-7-carboxylic acid [(S)-(3-fluoro-4-trifluoromethyl-phenyl)-(R)-pyrrolidin-2-yl-methyl]-amide], for which the IC50 amounted to 1.8 nM.

`O=C(N[C@H](c1ccc(F)c(Cl)c1)[C@@H]1CCNC1)c1ccc2cnc(NC3CCOCC3)nc2c1` (stereo in doubt) [Compound I-9, 2-(tetrahydropyran-4-ylamino)-quinazoline-7-carboxylic acid [(R)-(3-chloro-4-fluoro-phenyl)-(S)-pyrrolidin-3-yl-methyl]-amide] registered an IC50 of 6.7 nM.

The compound `O=C(N[C@@H](c1ccc(F)c(Cl)c1)[C@H]1CCNC1)c1ccc2cnc(NC3CCOCC3)nc2c1` (stereo in doubt) [Compound I-11, 2-(tetrahydropyran-4-ylamino)-quinazoline-7-carboxylic acid [(S)-(3-chloro-4-fluoro-phenyl)-(R)-pyrrolidin-3-yl-methyl]-amide] yielded an IC50 of 6.4 nM.

`O=C(N[C@H](c1ccc(Cl)c(F)c1)[C@@H]1CCCN1)c1ccc2cnc(NC3CCOCC3)nc2c1` (stereo in doubt) [Compound I-23, 2-(tetrahydropyran-4-ylamino)-quinazoline-7-carboxylic acid [(S)-(4-chloro-3-fluoro-phenyl)-(R)-pyrrolidin-2-yl-methyl]-amide] showed an IC50 of 2.3 nM.

Compound `COc1ccc([C@@H](NC(=O)c2ccc3cnc(NC4CCOCC4)nc3c2)[C@@H]2CCCN2)cc1F` (stereo in doubt) [Compound I-24, 2-(tetrahydropyran-4-ylamino)-quinazoline-7-carboxylic acid [(S)-(3-fluoro-4-methoxy-phenyl)-(R)-pyrrolidin-2-yl-methyl]-amide] had an IC50 of 8.2 nM.

As for `COc1ccc([C@@H](NC(=O)c2cc(F)c3cnc(NC4CCOCC4)nc3c2)[C@@H]2CCCN2)cc1F` (stereo in doubt) [Compound I-25, 5-fluoro-2-(tetrahydropyran-4-ylamino)-quinazoline-7-carboxylic acid [(S)-(3-fluoro-4-methoxy-phenyl)-(R)-pyrrolidin-2-yl-methyl]-amide], the concentration for half-maximal inhibition (IC50) was 9 nM.

The compound `COc1ccc([C@@H](NC(=O)c2ccc3cnc(N[C@H](C)C4CC4)nc3c2)[C@@H]2CCCN2)cc1F` (stereo in doubt) [Compound I-26, 2-((R)-1-cyclopropyl-ethylamino)-quinazoline-7-carboxylic acid [(S)-(3-fluoro-4-methoxy-phenyl)-(R)-pyrrolidin-2-yl-methyl]-amide] returned an IC50 of 2 nM.

With `Cn1cc([C@H](NC(=O)c2ccc3cnc(NC4CCOCC4)nc3c2)c2ccc(C#N)c(Cl)c2)cn1` (stereo in doubt) [Compound I-48, (R)-N-((3-chloro-4-cyanophenyl)(1-methyl-1H-pyrazol-4-yl)methyl)-2-(tetrahydro-2H-pyran-4-ylamino)quinazoline-7-carboxamide], half-maximal inhibition (IC50) was put at 1.1 nM.

As to `Cn1cc([C@@H](NC(=O)c2ccc3cnc(NC4CCOCC4)nc3c2)c2ccc(C#N)c(Cl)c2)cn1` (stereo in doubt) [Compound I-50, (S)-N-((3-chloro-4-cyanophenyl)(1-methyl-1H-pyrazol-4-yl)methyl)-2-(tetrahydro-2H-pyran-4-ylamino)quinazoline-7-carboxamide], the IC50 was found to be 25 nM.

`COc1ccc([C@H](NC(=O)c2cc(F)c3cnc(N[C@@H]4CCOC4)nc3c2)c2cnn(C)c2)cc1F` (stereo in doubt) [Compound I-62, 5-Fluoro-N-((S)-(3-fluoro-4-methoxyphenyl)(1-methyl-1H-pyrazol-4-yl)methyl)-2-((R)-tetrahydrofuran-3-ylamino)quinazoline-7-carboxamide]: the IC50 worked out at 4 nM.

Turning to `Cn1ccc(C(NC(=O)c2ccc3cnc(NC4CCOCC4)nc3c2)c2ccc(Cl)c(F)c2)n1` (centres unmarked) [Compound I-4, 2-(tetrahydropyran-4-ylamino)-quinazoline-7-carboxylic acid [(4-chloro-3-fluoro-phenyl)-(1-methyl-1H-pyrazol-3-yl)-methyl]-amide], the IC50 stood at 5 nM.

`O=C(N[C@@H](c1ccc(F)c(Cl)c1)[C@@H]1CCNC1)c1ccc2cnc(NC3CCOCC3)nc2c1` [Compound I-8, 2-(tetrahydropyran-4-ylamino)-quinazoline-7-carboxylic acid [(R)-(3-chloro-4-fluoro-phenyl)-(R)-pyrrolidin-3-yl-methyl]-amide] registered an IC50 of 6.7 nM.

In turn, `O=C(N[C@H](c1ccc(F)c(Cl)c1)[C@H]1CCNC1)c1ccc2cnc(NC3CCOCC3)nc2c1` [Compound I-10, 2-(tetrahydropyran-4-ylamino)-quinazoline-7-carboxylic acid [(S)-(3-chloro-4-fluoro-phenyl)-(S)-pyrrolidin-3-yl-methyl]-amide] registered an IC50 of 5.4 nM.

As to `CN1CCC[C@@H]1[C@@H](NC(=O)c1ccc2cnc(NC3CCOCC3)nc2c1)c1ccc(C(F)(F)F)c(F)c1` [Compound I-17, 2-(Tetrahydropyran-4-ylamino)-quinazoline-7-carboxylic acid [(S)-(3-fluoro-4-trifluoromethyl-phenyl)-((R)-1-methyl-pyrrolidin-2-yl)-methyl]-amide], the IC50 was determined as 2.8 nM.

The compound `CCn1ccc([C@H](NC(=O)c2ccc3cnc(NC4CCOCC4)nc3c2)c2ccc(Cl)c(F)c2)n1` [Compound I-18, 2-(tetrahydropyran-4-ylamino)-quinazoline-7-carboxylic acid [(R)-(4-chloro-3-fluoro-phenyl)-(1-ethyl-1H-pyrazol-3-yl)-methyl]-amide] had an IC50 of 12.8 nM.

With `Cn1ccc([C@@H](NC(=O)c2ccc3cnc(NC4CCOCC4)nc3c2)c2ccc(Cl)c(F)c2)n1` [Compound I-20, 2-(tetrahydropyran-4-ylamino)-quinazoline-7-carboxylic acid [(S)-(4-chloro-3-fluoro-phenyl)-(1-methyl-1H-pyrazol-3-yl)-methyl]-amide], the IC50 worked out at 2 nM.

In turn, `Cn1ccc([C@H](NC(=O)c2ccc3cnc(NC4CCOCC4)nc3c2)c2ccc(Cl)c(F)c2)n1` [Compound I-21, 2-(tetrahydropyran-4-ylamino)-quinazoline-7-carboxylic acid [(R)-(4-chloro-3-fluoro-phenyl)-(1-methyl-1H-pyrazol-3-yl)-methyl]-amide] gave an IC50 of 69 nM.

In the case of `Cn1cc([C@@H](NC(=O)c2ccc3cnc(N[C@@H]4CCOC[C@@H]4F)nc3c2)c2ccc(Cl)c(F)c2)cn1` [Compound I-27, 2-((3R,4R)-3-fluoro-tetrahydropyran-4-ylamino)-quinazoline-7-carboxylic acid [(S)-(4-chloro-3-fluoro-phenyl)-(1-methyl-1H-pyrazol-4-yl)-methyl]-amide], the IC50 amounted to 15.8 nM.

`Cn1cc([C@@H](NC(=O)c2ccc3cnc(N[C@H]4CCOC[C@@H]4F)nc3c2)c2ccc(Cl)c(F)c2)cn1` [Compound I-29, 2-((3R,4S)-3-fluoro-tetrahydropyran-4-ylamino)-quinazoline-7-carboxylic acid [(S)-(4-chloro-3-fluoro-phenyl)-(1-methyl-1H-pyrazol-4-yl)-methyl]-amide] gave an IC50 of 3.8 nM.

In turn, `Cn1cc([C@@H](NC(=O)c2ccc3cnc(N[C@@H]4CCOC[C@H]4F)nc3c2)c2ccc(Cl)c(F)c2)cn1` [Compound I-30, 2-((3S,4R)-3-fluoro-tetrahydropyran-4-ylamino)-quinazoline-7-carboxylic acid [(S)-(4-chloro-3-fluoro-phenyl)-(1-methyl-1H-pyrazol-4-yl)-methyl]-amide] showed an IC50 of 2.1 nM.

Compound `COc1ccc([C@H](NC(=O)c2ccc3cnc(NC4CCOCC4)nc3c2)[C@H]2C[C@H](F)CN2)cc1F` [Compound I-31, 2-(tetrahydropyran-4-ylamino)-quinazoline-7-carboxylic acid [(S)-(3-fluoro-4-methoxy-phenyl)-((2R,4S)-4-fluoro-pyrrolidin-2-yl)-methyl]-amide] registered an IC50 of 1.7 nM.

On to `COc1ccc([C@H](NC(=O)c2ccc3cnc(NC4CCOCC4)nc3c2)c2cnn(C)c2)cc1F` [Compound I-32, 2-(tetrahydropyran-4-ylamino)-quinazoline-7-carboxylic acid [(S)-(3-fluoro-4-methoxy-phenyl)-(1-methyl-1H-pyrazol-4-yl)-methyl]-amide], for which the IC50 is 1.1 nM.

As to `COc1ccc([C@H](NC(=O)c2cc(F)c3cnc(NC4CCOCC4)nc3c2)c2cnn(C)c2)cc1F` [Compound I-33, 5-fluoro-2-(tetrahydropyran-4-ylamino)-quinazoline-7-carboxylic acid [(S)-(3-fluoro-4-methoxy-phenyl)-(1-methyl-1H-pyrazol-4-yl)-methyl] -amide], the IC50 turned out to be 1.5 nM.

`O=C(N[C@@H](c1ccc(F)c(Cl)c1)[C@]1(F)CCNC1)c1ccc2cnc(NC3CCOCC3)nc2c1` [Compound I-36] yielded an IC50 of 1.6 nM.

`O=C(N[C@H](c1ccc(F)c(Cl)c1)[C@@]1(F)CCNC1)c1ccc2cnc(NC3CCOCC3)nc2c1` [Compound I-37] registered an IC50 of 73.6 nM.

In general, IC50 refers to the concentration needed to halve the response being measured.
